The record followed here is PubChem BioAssay AID179 (DTP/NCI, 2004).

The experiment has as its system CEM cells HIV-1 protection, formazan growth assay. The experiment in a line: NCI AIDS Antiviral Assay. The settings on record: for IC50: measured here: growth of uninfected CEM cells. The procedure, abridged: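 Steps: treat uninfected and HIV-1-infected human CEM cells at five drug levels; quantify growth by soluble formazan; retest any compound reaching 50% protection; classify actives from the retest.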

Calls of active or inactive are those of the source.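 How the source made its calls: active means compounds giving half or more protection of infected cells from virus-caused growth loss, again on retest; inactive means the rest.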

A word on the EC50: it is the concentration that produces a half-maximal response. The IC50 is the midpoint of a concentration-inhibition curve. A lower IC50 goes with greater potency. Turning to `CCOP(=O)(CCCC(O)CNc1nc(N)nc(Cl)c1N=Nc1ccc(Cl)cc1)OCC` (stereo not drawn), the EC50 is over 200 µM and the IC50 came out at 5.75 µM.

With `Cc1cc2c(s1)C(N)CC2=O` (stereo not drawn), the EC50 was over 200 µM and the IC50 was over 200 µM. On to `NCCN.NCCN.O=C([O-])C(=O)[O-].[Cl-].[Co+3]`, for which the outcome was inactive. As for `CCCCCc1cc(CCCC)sc1-c1ccco1`, the EC50 is over 200 µM and the IC50 stood at 145 µM. For `Cn1nnn2c(-c3ccccc3)nnc12`, the EC50 was over 891 µM and the IC50 is over 891 µM.

With `Cc1ccc(S(=O)(=O)N(/N=C/C=C/c2ccccc2)c2nnc(-c3ccccc3)c(-c3ccccc3)n2)cc1`, the EC50 is over 18.6 µM and the IC50 amounted to 10 µM. The corresponding values for `Clc1ccc(Nc2ncco2)cc1Cl` are over 200 µM and 107 µM. The matching figures for `O=c1[nH]c(=O)c2nnoc2[nH]1`: over 200 µM and 75.9 µM. The matching figures for `C/C(=C\CCC1=CC(=O)OC1)CCC1C2C(=O)CC(C)[C@@]3(C)CC[C@]1(C)[C@@]23C` (stereo partly drawn): over 200 µM and 34.7 µM. Regarding `[O-][n+]1c(CCl)nc2ccccc2c1-c1ccccc1F`, the EC50 was over 34.7 µM and the IC50 is over 34.7 µM. With `CC1(C)CCC[C@@]2(C)C1CC[C@H]1CC(O)C3(C)CCC12C3` (stereo partly drawn), the EC50 was over 12.3 µM and the IC50 was over 12.3 µM. In the case of `O=S(=O)(O)c1cc(N=Nc2cc(S(=O)(=O)O)c3cccnc3c2O)ccc1/C=C/c1ccc(N=Nc2cc(S(=O)(=O)O)c3cccnc3c2O)cc1S(=O)(=O)O` (tested in a mixture with another compound), the EC50 was 2.95 µM and the IC50 came out at 50.1 µM. For `CC(=O)OCC(OC(C)=O)C(OC(C)=O)C(Cn1c(=O)cc(C)c2ccc(C)c(C)c21)OC(C)=O` (stereo not drawn), the EC50 is over 200 µM and the half-inhibitory concentration (IC50) was over 200 µM.

As for `O=C(O)C1C2CC3CC2CC31` (stereo not drawn), the outcome was inactive. For the molecule `Cc1ccc(NC(=O)C(=O)CC(=O)c2sc(Nc3c(C)cccc3C)nc2C)cc1C`, the EC50 is over 200 µM and the IC50 was over 200 µM.

`CCOC(=O)C(C(=O)OCC)=C1C=C(c2ccccc2)c2ccccc21`: the result was inactive.

With `COC1[C@@H](OC(C)=O)[C@@H](NC(=O)C(Cl)(Cl)Cl)C(I)[C@@H](N2C(=O)c3ccccc3C2=O)[C@H]1OC` (stereo partly drawn), the EC50 was over 200 µM. Consider `CCN1C(=O)C(=C/C=C/C=C2/N(C)c3ccccc3C2(C)C)C(=O)N(CC)C1=S`, for which the EC50 is over 200 µM and the IC50 is 18.6 µM. As to `C[C@]12CCC3[C@@H](CC[C@@H]4c5nonc5CC[C@]34C)C1C/C(=N/O)C2=O` (stereo partly drawn), the EC50 was over 105 µM and the IC50 is 95.5 µM. The matching figures for `CCOP(=O)(OCC)/C(C)=N/O`: over 1290 µM and over 1290 µM. The corresponding values for `CCOC(=O)CNC(=O)C(CSSCC(NC(=O)OCc1ccccc1)C(=O)O)NC(=O)OCc1ccccc1` (stereo not drawn) are over 200 µM and over 200 µM. The corresponding values for `COc1cc2cc(C(=O)N3CC(CCl)c4c3cc([N+](=O)[O-])c3ccccc43)[nH]c2c(OC)c1OC` (stereo not drawn) are over 10 µM and 2.4 µM. On to `[NH-]C(CCC(N)=O)C(=O)O.[NH-]C(CCCCN)C(=O)O.[Zn+2]` (stereo not drawn), for which the EC50 is over 200 µM and the IC50 was over 200 µM. As to `CC(NC(=O)C(N)CCC(=O)O)C(=O)NCP(=O)(O)O` (stereo not drawn), the EC50 was over 200 µM and the IC50 was over 200 µM.

For `COc1cc(O)cc2c1C(=O)C(C)O2` (stereo not drawn), the EC50 is over 200 µM and the IC50 is over 200 µM. `CCN(/N=C1\CC2C=CCN(C2)C(=O)Cc2c1[nH]c1ccccc21)S(=O)(=O)c1ccc(C)cc1` (stereo not drawn): the EC50 was over 63.1 µM and the IC50 stood at 60.3 µM. The corresponding values for `O=C1OC(=O)C2C1C=C(c1ccccc1)C1C3C=CC(C4C(=O)OC(=O)C34)C21` (stereo not drawn) are over 200 µM and over 200 µM. Turning to `CCOC(=O)NP(=O)(N1CC1(C)C)N1CC1(C)C` (stereo not drawn), the EC50 is 123 µM and the IC50 was over 200 µM.

In the case of `Nc1ncnc2c1ncn2-c1ccc([N+](=O)[O-])cn1`, the result was inactive.

Consider `C=CCOc1c(C)cc(C#N)cc1C`, for which the result was inactive. Consider `COC[C@@H](N=CN1CCc2cc(OC)c(OC)cc2C1)C(C)(C)C`, for which the EC50 was over 741 µM and the IC50 was over 741 µM. As to `OC1c2ccccc2CCC1C(O)(C(F)(F)F)C(F)(F)F` (stereo not drawn), the EC50 was over 200 µM and the IC50 stood at 85.1 µM.

Take `COc1ccccc1NC(=O)CC(=O)NNCC(=O)Nc1nnc(-c2ccccc2)o1`: the EC50 was over 85.1 µM and the IC50 is over 85.1 µM. In the case of `C=C1C(OC(=O)C(O)C(c2ccccc2)N(C)C)C[C@H](OC(C)=O)[C@]2(C)C1C(OC(C)=O)[C@@H]1CC(OC(C)=O)C(C)=C([C@@H](OC(C)=O)C2OC(C)=O)C1(C)C` (stereo partly drawn), the outcome was inactive. Take `CCCn1c(SCC)c2cc3cc4ccccc4cc3cc2c1-c1nc(F)nc(F)n1`: the EC50 was over 30.9 µM and the IC50 worked out at 22.4 µM. Consider `CCOC(=O)c1nc(SC)sc1NC(=O)c1ccccc1Cl`, for which the EC50 is over 200 µM and the IC50 worked out at 9.55 µM. For the molecule `CCOC(=O)c1cc(NC(=O)N(CCC#N)CCN(C(=O)N[C@@H](Cc2ccccc2)C(=O)N[C@@H](CC(C)C)C(=O)NC)c2ccccc2)ccc1OC`, the EC50 was over 200 µM and the IC50 is 29.5 µM. Consider `CCOC(=O)c1sc2c(c1OC(=O)c1ccc(OC)cc1)c(=O)n(-c1ccccc1)c(=S)n2-c1ccccc1`, for which the EC50 was over 200 µM and the IC50 amounted to 38.9 µM.

In the case of `COc1ccc(CN2CCCN(Cc3ccc(OC)cc3OC)C2c2cc(Cl)cc(Cl)c2O)c(OC)c1`, the EC50 was over 200 µM and the IC50 amounted to 34.7 µM. The corresponding values for `CCOC(=O)c1ccc(N=C2C(=S)N(c3ccc(C(=O)OCC)cc3)C(=N)N2/N=C/c2ccccc2)cc1` are over 200 µM and 3.24 µM.

Turning to `S=c1[nH]nc(CCCCCCCCc2n[nH]c(=S)o2)o1`, the outcome was inactive. Consider `CN(C)Cc1cc(N=Nc2ccccc2)ccc1O`, for which the EC50 is over 200 µM and the IC50 was found to be 102 µM. With `COc1cccc(C2C(C(=O)Nc3cc(=O)n(C)c(=O)n3C)=C(C)NC(C)=C2C(=O)Nc2cc(=O)n(C)c(=O)n2C)c1O`, the EC50 was over 219 µM and the IC50 was 74.1 µM. The corresponding values for `Nc1nc2c(s1)CCC2` are over 708 µM and 5.62 µM.

As to `COc1cc2c(c(OC)c1OC)C(=O)[C@H](Br)[C@H]2NC(=O)NCCCl`, the EC50 was over 200 µM and the IC50 was 32.4 µM. As for `O=[N+]([O-])c1cccnc1NCC1(CO)CC(Cc2ccccc2)C1` (stereo not drawn), the EC50 is over 200 µM and the IC50 amounted to 110 µM. Consider `O=P(CP(=O)(c1ccccc1)c1ccccc1)(c1ccccc1)c1ccccc1.[CH3][Sn]([CH3])([Cl])[Cl]`, for which the outcome was inactive. For `C(=NCCCN1CCN(CCCN=Cc2cccc3ccccc23)CC1)c1cccc2ccccc12`, the EC50 is over 200 µM and the IC50 came to 46.8 µM.

Take `C=C1CC[N+]2(CCCCCC)CCCC12` (stereo not drawn): the EC50 was over 871 µM and the IC50 is 126 µM. The corresponding values for `CC(=O)O[C@]1(C)CCC2C(C)C(=O)OC2C2C(C)[C@@H](O)CC21` (stereo partly drawn) are over 200 µM and 34.7 µM. `O=C(CCSSc1ccccn1)ON1C(=O)CCC1=O`: the EC50 was over 50.1 µM and the concentration for half-maximal inhibition (IC50) is over 50.1 µM.
